Results on nine molecules are retold here after US9078864B2, “Agonists for antimicrobial peptide systems” (priority 2008, dated 2015).

Data set [1] concerns cathelicidin. Conditions: 4000 IU/d oral for 21 days, atopic dermatitis subjects; cited from earlier work.
Data set [2] relates to CAMP gene, encoding LL-37. As to the kind of experiment: CAMP (LL-37) mRNA expression in VA10 lung epithelial cells, real time RT-PCR. The class given is cell-based, human. Particulars: VA10 cells, 4 mM, 24 hours. The protocol: LL-37 expression in lung epithelial cells treated with different agents Lung epithelial cells (VA 10) were grown to confluency under standard conditions and the agents to be tested added at the indicated concentrations (see below). mRNA was isolated 24 hours after treatment and measured by real time reverse transcription PCR.
Six-well plates were seeded with 1.0×10^6 cells per well and grown for two days. Medium was then exchanged and different wells were left untreated, supplemented with 2 mM sodium butyrate or 2 mM sodium 4-phenylbutyrate. The cells were incubated for 48 h and total RNA was prepared using the RNEasy kit (Qiagen). Total RNA concentrations were measured using the Quant-iT RiboGreen RNA assay kit (Invitrogen). Superscript III first-strand synthesis system (Invitrogen) was used to synthesize cDNA using random primers according to the protocol of the manufacturer. […] Results were normalized to total RNA quantity, presented as relative fold induction of untreated control cells.
Total RNA was isolated from the cells and CAMP mRNA expression levels analyzed by real time RT-PCR.

The test system of data set [3] is PBA induced CAMP gene expression. As to the kind of experiment: Inhibition of PBA induced CAMP gene expression by MAP kinase inhibitors in VA10 cells. The class given is cell-based, human. Conditions: 20 μM inhibitor one hour prior to 4 mM PBA, 24 hours. The procedure: FIG. 6B. […] CAMP mRNA levels were determined by real time RT-PCR. Individual samples were normalized to total RNA input. Results were normalized to expression in control samples where controls were given the arbitrary value of one. Normalized data is plotted as mean+SE from three independent experiments. *: P<0.05; **: P<0.01; ***: P<0.001
The effect of inhibitors for c-Jun N-terminal kinase (JNK), p38 kinase and extracellular signal-regulated kinase ½ (ERK½) on PBA induced CAMP gene expression were also investigated as shown in FIG. 6B. One hour prior to stimulation with 4 mM PBA, VA10 cells were pre incubated with 20 μM SP600125, SB203580 or U0126 to inhibit the respective kinases. After 24 hours of incubation, total RNA was isolated and analyzed by real time RT-PCR for CAMP mRNA.

Data set [4] relates to LL-37 mRNA. Conditions: colonocytes in vitro; cited from earlier work.
Data set [5] relates to CAP-18 (the rabbit homologue to LL-37). As to the kind of experiment: Shigella infected rabbits treated with glyceryl tributyrate, CAP-18 immunohistochemistry. Format: in vivo. Conditions: oral, 47 μmol/kg twice daily for 3 days, Shigella flexneri 2a. The protocol:
Animal model: Inbred New Zealand White rabbits of either gender weighing 1.8 to 2 kg were used for the study. The animals were individually caged in a room maintained at 22-25° C. Before inclusion in the study, health status of the rabbits was determined by physical examination, culture of stool and rectal swab specimens and fecal parasitic examination. Healthy coccidia-free rabbits that were also free of enteric pathogens (e.g. Salmonella, Shigella, Vibrio cholera) were studied. Rabbits were infected with Shigella and divided into two groups, one group was treated orally with glyceryl tributyrate and the other with saline. Expression of the CAP-18 peptide and its proform in colonic and rectal tissue specimens were analyzed in healthy rabbits, in untreated infected rabbits, in infected and healthy rabbits treated with glycerol tributyrate. For analyses of toxicity effects of glycerol tributyrate healthy rabbits were also treated with this compound.
Bacterial strain and inoculum preparation: The Shigella flexneri 2a strain was isolated from stool of a patient. The strain was positive for the Serény test and Congo red binding, reflecting invasive properties (Berkhoff, H. A. and Vinal, A. C., 1986, Avian Dis. 30, 117-121)) From this stock, bacteria were subcultured on trypticase soya agar (TSA; Becton Dickinson, Sparks, Md.) plates and cultured overnight at 37° C. […]

The test system of data set [6] is PBA and butyrate induced CAMP gene expression. Nature of the data set: Inhibition of PBA and butyrate induced CAMP gene expression by cycloheximide in VA10 cells. Conditions: 20 μg/ml one hour prior to stimulation, 24 hours. The class given is cell-based, human. The procedure:
VA10 cells were treated with 4 mM PBA or butyrate (BA) in the presence or absence of 20 μg/ml cycloheximide. CAMP mRNA levels were determined by real time RT-PCR. Individual samples were normalized to total RNA input. Results were normalized to expression in control samples (solvent) where controls were given the arbitrary value of one. Normalized data is plotted as mean plus standard error of the mean from at least three independent experiments. *: p<0.05; **: p<0.01; ***: p<0.001.
In order to assess whether the PBA and butyrate induction pathways of CAMP gene expression are direct, VA10 cells were treated with PBA or butyrate in the presence and absence of cycloheximide (CHX). After 24 hours of incubation, total RNA was isolated and CAMP mRNA levels measured using real time RT-PCR.

The test system of data set [7] is shigellosis; CAP-18 (the rabbit homologue of LL-37). Conditions: rabbits; cited from earlier work.
For data set [8] the following is noted: cited from earlier work.
For data set [9], the system named is defensin. Particulars: similar concentrations, FIG. 7 of US2002-0076393; cited from earlier work.

“Also recorded” adds a separate entry of the source.

On to `C=C1CC[C@H](O)C/C1=C/C=C1\CCC[C@]2(C)[C@@H]([C@H](C)CCCC(C)C)CC[C@@H]12` [oral vitamin D], for which the “cathelicidin expression in AD lesional skin” value in data set [1] is given as “statistically significant increase”. With `CC(Cc1ccccc1)C(=O)O` (stereo not drawn) [ST7, α-methylhydrocinnamate], in [2], the “CAMP mRNA expression” value was “significantly increased”. As for `N#CC(=C(/N)Sc1ccccc1N)/C(C#N)=C(\N)Sc1ccccc1N` [U0126], the “PBA induced CAMP gene expression in presence of inhibitor” value in [3] is reported as “significantly reduced”. As for `CCC(C)(C)C(=O)O` [ST20, 2,2-dimethylbutyrate], in [2], the “CAMP mRNA expression” value is “no apparent effect”.

On to `CCC(=O)O` [propionate], for which, in [4], the “LL-37 mRNA expression” value is on record as “increases”. As for `CCCC(=O)OCC(COC(=O)CCC)OC(=O)CCC` [tributyrylglycerol, glyceryl tributyrate], in data set [5], the “CAP-18 expression in surface epithelial cells of Shigella infected rabbits” value is on record as “counteracted; also recorded: reverted and/or prevented”.

Consider `C[C@@H]1C[C@@H]([C@H](O)CC2CC(=O)NC(=O)C2)C(=O)[C@@H](C)C1` [CHX, cycloheximide], for which the “PBA induced CAMP gene expression in presence of cycloheximide” value in data set [6] (4 mM PBA) is “effectively blocked”. For the same molecule, the “butyrate induced CAMP gene expression in presence of cycloheximide” value in [6] (4 mM butyrate) was “effectively blocked”. On to `CC(C)C(=O)O` [isobutyrate], for which the “LL-37 mRNA expression” value in data set [4] was “increases”. `CCCC(=O)[O-].[Na+]` [butyrate, sodium butyrate]: in data set [7], the “CAP-18 in the surface epithelium” value is recorded as “significant upregulation”; the “clinical illness and bacterial load in the stool” value is “reduced clinical illness and bacterial load in the stool”. Also, in [8] (528 mg/day to 1.12 g/day, 2-6 weeks, adult IBD patients), the “safety of topical (enema) dosing” value was “safe with no obvious side effects”. Also, the “safety of oral dosing” value in data set [8] (daily oral dose of 4 g, colonic-targeted tablets, 6 weeks, IBD patients) is “safe and well tolerated without any adverse effects”. Further, the “activity in stimulating production of defensin relative to isoleucine” value in [9] is on record as “less active than isoleucine at similar concentrations”. Also, the “LL-37 mRNA expression” value in data set [4] was “increases”.
